Reference: patent EP1003775B1, “HEPATITIS C INHIBITOR PEPTIDES” (BOEHRINGER INGELHEIM (CANADA) LTD., priority 1997, dated 2005)

Test system: NS3 protease
Assay: HCV NS3 protease inhibition (recombinant NS3 protease radiometric assays)
Assay type: biochemical, hepatitis C virus
Settings: qualitative statement
Protocol: The substrate used for the HCV NS3 protease radiometric assay, DDIVPC-SMSYTW, is cleaved between the cysteine and the serine residues by the enzyme. The sequence DDIVPC-SMSYTW corresponds to the NS5A/NS5B natural cleavage site in which the cysteine residue in P2 has been substituted for a proline. The peptide substrate DDIVPC-SMSYTW and the tracer biotin-DDIVPC-SMS[^125I-Y]TW were incubated with the recombinant NS3 protease in the absence or in the presence of inhibitors. The separation of substrate from products was performed by adding avidin-coated agarose beads to the assay mixture followed by filtration. The amount of SMS [^125I-Y]TW product found in the filtrate (with or without inhibitor) allowed for the calculation of the percentage of substrate conversion and of the percentage of inhibition.
The assay was performed in a 96-well polypropylene plate. Each well contained: • 20 µL substrate/tracer in assay buffer; • 10 µL ± inhibitor in 20% DMSO/assay buffer; • 10 µL NS3 protease 1b. […]
The filtrates were counted on a Packard® TopCount instrument using a ^125I-liquid protocol for 1 minute. The %inhibition was calculated with the following equation: 100- [(countsinh -countsblank ) / (countsctl -countsblank ) x 100] […]
The value of IC50 was calculated in the same manner as in Example 19.

Substance: Ac-DDIVPC-OH [Ac-D-D-I-V-P-C-OH]
- inhibition of the NS3 protease: inhibitory
